“Also recorded” adds a separate entry of the source. Where a SMILES comes first, the peptide text is derived from it. [ ]: non-standard residue; d: D form.

One test deals with human PBMCs stimulated with SEB. It counts as cell-based.
Conditions: not given
For the molecule `CSCC[C@@H](NC(=O)[C@H](N)CS)C(=O)N[C@H](Cc1ccc(O)cc1)C(=O)O` [CMY*] (H-[dC]-[dM]-[dY]-OH), the “inhibition of SEB proliferation (words)” value is on record as “significantly greater inhibitory effects than the control 12-mer peptide or their respective L-conformation peptides; also recorded: most effective in blocking superantigen activity”.

Turning to `CSCC[C@@H](NC(=O)[C@H](N)Cc1ccc(O)cc1)C(=O)N[C@H](CS)C(=O)O` [YMC*] (H-[dY]-[dM]-[dC]-OH), the “inhibition of SEB proliferation (words)” value is recorded as “significantly greater inhibitory effects than the control 12-mer peptide or their respective L-conformation peptides; also recorded: most effective in blocking superantigen activity”.

AAA [reference compound]: the “inhibition of blastogenesis” value is given as “not effective”.

On to AMY, for which the “inhibition of blastogenesis” value is “effective in inhibiting blastogenesis of the toxins”.

In the case of AMYGGVTEHEGN [SEQ ID NO: 8], the “inhibitory activity of alanine substitution constructs” value (“inhibitory activity” below) is given as “significant loss of the inhibitory properties”.

For CAY, the “inhibition of blastogenesis” value was “effective in inhibiting blastogenesis of the toxins”.

In the case of CAYGGVTEHEGN [SEQ ID NO: 9], the “inhibitory activity” value is recorded as “significant loss of the inhibitory properties”.

Turning to CMAGGVTEHEGN [SEQ ID NO: 10], the “inhibitory activity” value was “significant loss of the inhibitory properties; also recorded: complete loss of the inhibitory properties”.

For CMYG, the “inhibition of proliferative effects of the toxin” value is given as “comparatively little effect in the inhibition of toxin regardless of concentration”.

Consider CMYGGV, for which the “loss of inhibiting activity compared with original 12-mer peptide” value worked out at 52%.

Consider CMYGGVAEHEGN [A at 7], for which the “inhibitory activity” value is listed as “better inhibition of biological activity than the original 12-mer peptide”.

On to CMYGGVTAHEGN [A at 8], for which the “inhibitory activity” value is reported as “better inhibition of biological activity than the original 12-mer peptide”.

As for CMYGGVTEHE, the “loss of inhibiting activity compared with original 12-mer peptide” value was 54%.

For the molecule CMYGGVTEHEG, the “loss of inhibiting activity compared with original 12-mer peptide” value came out at 18%.

In the case of CMYGK, the “inhibition of SEB proliferation (words)” value is given as “comparable to that of the original 12 amino acid peptide; also recorded: more effectively than the 12-mer peptide 6343”.

Consider CMYKK, for which the “inhibition of SEB proliferation (words)” value is “comparable and at high concentrations better than the original 12-mer peptide; also recorded: more effectively than the 12-mer peptide 6343”.

As to CYM, the “inhibition of blastogenesis” value is listed as “effective in inhibiting blastogenesis of the toxins”.

Consider “EHEGNCMYGGVT [6343S, reference compound]”, for which the “inhibition of SEB proliferation” value is “less than 20%” and the “inhibition of SEB proliferation (words)” value is given as “minimal effect on bacterial toxin proliferation”.

On to MYC, for which the “inhibition of blastogenesis” value was “effective in inhibiting blastogenesis of the toxins”.

For MYGGVTEHEGN, the “loss of inhibiting activity compared with original 12-mer peptide” value is “approximately 30%”.

On to TEHEGN, for which the “loss of inhibiting activity compared with original 12-mer peptide” value is on record as 48%.

TTT [reference compound]: the “inhibition of blastogenesis” value was “not effective”.

Regarding YGGVTEHEGN, the “loss of inhibiting activity compared with original 12-mer peptide” value was “approximately 50%”.

Turning to YYY [reference compound], the “inhibition of blastogenesis” value is given as “not inhibitory”.

Turning to acetylated CMY, the “inhibition of SEB proliferation (words)” value is on record as “did not significantly change the inhibitory effects of CMY”.

As for cmy-NH2, the “inhibition of blastogenesis” value is given as “effective in inhibiting blastogenesis of the toxins”.

On to cmy-OH, for which the “inhibition of blastogenesis” value is “effective in inhibiting blastogenesis of the toxins”.

The subject of another test is superantigen shock in Balb/c mice (SEB). To be noted: mouse, in vivo.
As to `CSCC[C@@H](NC(=O)[C@H](N)CS)C(=O)N[C@H](Cc1ccc(O)cc1)C(=O)O` [CMY*] (H-[dC]-[dM]-[dY]-OH), the “protection against superantigen shock” value is on record as “provided some protection against superantigen-induced shock”.

Turning to `CSCC[C@@H](NC(=O)[C@H](N)Cc1ccc(O)cc1)C(=O)N[C@H](CS)C(=O)O` [YMC*] (H-[dY]-[dM]-[dC]-OH), the “protection against superantigen shock” value is recorded as “quite effective in protecting mice against shock”.

The test is the same for the next values; noted with them: mouse, in vivo, ip.
As for `CSCC[C@@H](NC(=O)[C@H](N)CS)C(=O)N[C@H](Cc1ccc(O)cc1)C(=O)O` [CMY*] (H-[dC]-[dM]-[dY]-OH), the “% SURVIVAL” value is given as 33% and the SURVIVORS/INJECTED is given as 2/6.

For the molecule `CSCC[C@@H](NC(=O)[C@H](N)Cc1ccc(O)cc1)C(=O)N[C@H](CS)C(=O)O` [YMC*] (H-[dY]-[dM]-[dC]-OH), the “% SURVIVAL” value came to 83% and the SURVIVORS/INJECTED is 5/6.

The subject of another test is IL-2 RNA. To be noted: cited from earlier work.
YNKKKATVQELD: the “inhibition of expression of IL-2 RNA” value was 18-40 fold.

In a further test the test system is bacterial toxins. To be noted: mouse, in vivo; cited from earlier work.
On to YNKKKATVQELD, for which the “rescue from lethal effects of bacterial toxins” value is given as “rescues mice from the lethal effects of bacterial toxins”.
